Assays:
[1] = xn = mol fraction of the nth substance listed; settings: 81.5 kPa, Liquid, Vibrating tube method
[2] = refractive index (Na D-line) (dimensionless); xn = mol fraction of the nth substance listed; settings: 81.5 kPa, Liquid, Standard Abbe refractometry

Clc1ccccc1 [chlorobenzene] + O=[N+]([O-])c1ccccc1
Settings	mass density, 293.15 K [kg/m3]	mass density, 303.15 K [kg/m3]	mass density, 313.15 K [kg/m3]	mass density, 323.15 K [kg/m3]	mass density, 333.15 K [kg/m3]	refractive index, 293.15 K	refractive index, 303.15 K	refractive index, 313.15 K	refractive index, 323.15 K	refractive index, 333.15 K
[1], x1 = 0.1792	1186.15	1176.1	1166.03	1155.95	1145.83	–	–	–	–	–
[1], x1 = 0.2018	1184.02	1173.95	1163.86	1153.76	1143.62	–	–	–	–	–
[1], x1 = 0.2994	1174.79	1164.64	1154.47	1144.27	1134.02	–	–	–	–	–
[1], x1 = 0.3967	1165.55	1155.32	1145.05	1134.75	1124.4	–	–	–	–	–
[1], x1 = 0.491	1156.55	1146.24	1135.88	1125.49	1115.04	–	–	–	–	–
[1], x1 = 0.5425	1151.59	1141.23	1130.83	1120.39	1109.89	–	–	–	–	–
[1], x1 = 0.6479	1141.41	1130.96	1120.45	1109.9	1099.31	–	–	–	–	–
[1], x1 = 0.7553	1130.91	1120.36	1109.75	1099.09	1088.41	–	–	–	–	–
[1], x1 = 0.8748	1119.07	1108.4	1097.7	1086.93	1076.14	–	–	–	–	–
[1], x1 = 1	1106.49	1095.71	1084.86	1073.96	1063.01	–	–	–	–	–
[2], x1 = 0.1792	–	–	–	–	–	1.54704	1.54217	1.53739	1.53251	1.52761
[2], x1 = 0.2018	–	–	–	–	–	1.54638	1.5415	1.53671	1.53184	1.52695
[2], x1 = 0.2994	–	–	–	–	–	1.54356	1.53864	1.53383	1.52896	1.52412
[2], x1 = 0.3967	–	–	–	–	–	1.54078	1.53584	1.531	1.52612	1.52129
[2], x1 = 0.491	–	–	–	–	–	1.53813	1.53317	1.52829	1.52338	1.51851
[2], x1 = 0.5425	–	–	–	–	–	1.5367	1.53172	1.52682	1.52186	1.51697
[2], x1 = 0.6479	–	–	–	–	–	1.53381	1.52879	1.52381	1.51876	1.51377
[2], x1 = 0.7553	–	–	–	–	–	1.53092	1.52581	1.52072	1.51554	1.5104
[2], x1 = 0.8748	–	–	–	–	–	1.52777	1.52252	1.51723	1.51185	1.50652
[2], x1 = 1	–	–	–	–	–	1.52455	1.51902	1.51346	1.50781	1.50223

Brc1ccccc1 [bromobenzene] + O=[N+]([O-])c1ccccc1
Settings	mass density, 293.15 K [kg/m3]	mass density, 303.15 K [kg/m3]	mass density, 313.15 K [kg/m3]	mass density, 323.15 K [kg/m3]	mass density, 333.15 K [kg/m3]	refractive index, 293.15 K	refractive index, 303.15 K	refractive index, 313.15 K	refractive index, 323.15 K	refractive index, 333.15 K
[1], x1 = 0.0998	1232.31	1221.95	1211.59	1201.25	1190.87	–	–	–	–	–
[1], x1 = 0.2013	1262.07	1251.35	1240.6	1229.85	1219.06	–	–	–	–	–
[1], x1 = 0.2985	1290.56	1279.49	1268.39	1257.29	1246.12	–	–	–	–	–
[1], x1 = 0.3968	1319.31	1307.88	1296.44	1284.95	1273.45	–	–	–	–	–
[1], x1 = 0.505	1350.9	1339.07	1327.25	1315.36	1303.45	–	–	–	–	–
[1], x1 = 0.5974	1377.81	1365.65	1353.48	1341.27	1329.01	–	–	–	–	–
[1], x1 = 0.6987	1407.3	1394.76	1382.18	1369.62	1357.01	–	–	–	–	–
[1], x1 = 0.8018	1437.33	1424.41	1411.45	1398.53	1385.53	–	–	–	–	–
[1], x1 = 0.8963	1464.97	1451.69	1438.42	1425.19	1411.84	–	–	–	–	–
[1], x1 = 1	1495.52	1481.97	1468.41	1454.85	1441.22	–	–	–	–	–
[2], x1 = 0.0998	–	–	–	–	–	1.55317	1.54834	1.54352	1.53852	1.53345
[2], x1 = 0.2013	–	–	–	–	–	1.55394	1.54905	1.54416	1.53909	1.534
[2], x1 = 0.2985	–	–	–	–	–	1.55468	1.54973	1.54477	1.53962	1.53452
[2], x1 = 0.3968	–	–	–	–	–	1.55542	1.55041	1.54538	1.54015	1.53503
[2], x1 = 0.505	–	–	–	–	–	1.55622	1.55115	1.54603	1.54072	1.53559
[2], x1 = 0.5974	–	–	–	–	–	1.5569	1.55177	1.54658	1.5412	1.53605
[2], x1 = 0.6987	–	–	–	–	–	1.55764	1.55245	1.54718	1.54171	1.53654
[2], x1 = 0.8018	–	–	–	–	–	1.55838	1.55313	1.54777	1.54223	1.53704
[2], x1 = 0.8963	–	–	–	–	–	1.55906	1.55375	1.54831	1.54269	1.53748
[2], x1 = 1	–	–	–	–	–	1.55981	1.55442	1.5489	1.54319	1.53742

Brc1ccccc1 [bromobenzene] + Clc1ccccc1
Settings	mass density, [1] [kg/m3]	refractive index, [2]
293.15 K, x2 = 0	1495.52	1.55981
293.15 K, x2 = 0.1004	1457.81	1.55614
293.15 K, x2 = 0.2188	1413.03	1.55183
293.15 K, x2 = 0.3025	1381.12	1.54881
293.15 K, x2 = 0.4005	1343.53	1.54531
293.15 K, x2 = 0.5003	1304.91	1.54178
293.15 K, x2 = 0.6014	1265.46	1.53824
293.15 K, x2 = 0.6985	1227.24	1.53488
293.15 K, x2 = 0.7976	1187.96	1.53149
293.15 K, x2 = 0.899	1147.37	1.52802
303.15 K, x2 = 0	1481.97	1.55442
303.15 K, x2 = 0.1004	1444.57	1.55075
303.15 K, x2 = 0.2188	1400.11	1.54645
303.15 K, x2 = 0.3025	1368.44	1.54341
303.15 K, x2 = 0.4004	1331.07	1.5399
303.15 K, x2 = 0.5002	1292.73	1.53635
303.15 K, x2 = 0.6014	1253.57	1.5328
303.15 K, x2 = 0.6985	1215.65	1.52943
303.15 K, x2 = 0.7975	1176.65	1.52602
303.15 K, x2 = 0.8989	1136.37	1.52252
313.15 K, x2 = 0	1468.41	1.5489
313.15 K, x2 = 0.1004	1431.29	1.54525
313.15 K, x2 = 0.2188	1387.2	1.54094
313.15 K, x2 = 0.3025	1355.72	1.53791
313.15 K, x2 = 0.4004	1318.65	1.53439
313.15 K, x2 = 0.5002	1280.55	1.53084
313.15 K, x2 = 0.6014	1241.67	1.52729
313.15 K, x2 = 0.6985	1204.01	1.52391
313.15 K, x2 = 0.7975	1165.32	1.52049
313.15 K, x2 = 0.8989	1125.28	1.51697
323.15 K, x2 = 0	1454.85	1.54319
323.15 K, x2 = 0.1004	1418.03	1.53956
323.15 K, x2 = 0.2188	1374.22	1.53528
323.15 K, x2 = 0.3025	1342.96	1.53225
323.15 K, x2 = 0.4004	1306.14	1.52874
323.15 K, x2 = 0.5002	1268.32	1.5252
323.15 K, x2 = 0.6014	1229.71	1.52165
323.15 K, x2 = 0.6985	1192.33	1.51827
323.15 K, x2 = 0.7975	1153.89	1.51484
323.15 K, x2 = 0.8989	1114.13	1.51133
333.15 K, x2 = 0	1441.22	1.53742
333.15 K, x2 = 0.1004	1404.71	1.53383
333.15 K, x2 = 0.2188	1361.19	1.52957
333.15 K, x2 = 0.3025	1330.15	1.52657
333.15 K, x2 = 0.4004	1293.58	1.52308
333.15 K, x2 = 0.5002	1256.04	1.51956
333.15 K, x2 = 0.6014	1217.71	1.51602
333.15 K, x2 = 0.6985	1180.59	1.51266
333.15 K, x2 = 0.7975	1142.42	1.50924
333.15 K, x2 = 0.8989	1102.93	1.50574
